The text below walks through data of patent US20250215012A1, “IKZF2 DEGRADERS AND USES THEREOF” (REGENTS OF THE UNIVERSITY OF MICHIGAN, priority 2022, published 2025).

Experiment [1] concerns the target GST-tagged wild-type human CRBN protein (Homo sapiens (Human), UniProt Q96SW2). Put plainly: Cereblon Binding Assay (Cisbio Cereblon Binding Kit, TR-FRET). To be noted: about 3 hours at room temperature. How it is done: The binding to cereblon (CRBN) is determined using the Cereblon Binding Kit (Cisbio, #64BDCRBNPEG) following the manufacturer's instruction. Briefly, serially diluted compounds are incubated with GST-tagged wild-type human CRBN protein, XL665-labelled Thalidomide and Europium Cryptate labelled GST antibody.
The binding to cereblon (CRBN) was determined using the Cereblon Binding Kit (Cisbio, #64BDCRBNPEG) following the manufacturer's instruction. Briefly, serially diluted compounds were incubated with GST-tagged wild-type human CRBN protein, XL665-labelled Thalidomide and Europium Cryptate labelled GST antibody at room temperature for about 3 hours.
On the technique in general: TR-FRET usually uses a lanthanide donor and a delayed reading to cut background.

Experiment [2] has as its target T1, IKZF2 (Homo sapiens (Human), UniProt Q96SW2+Q9UKS7). Briefly: IKZF2 HiBiT Assay (Jurkat-IKZF2-HiBiT cell line). It counts as cell-based. The settings on record: Jurkat-IKZF2-HiBiT cells, 24 hours; for DC50: read-out: HiBit assay degradation analysis DC50; for Dmax: read-out: HiBit assay degradation analysis Dmax. The method, boiled down:
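IKZF2 degradation was assessed as HiBiT luminescence in Jurkat-IKZF2-HiBiT cells, using lytic detection after 24 h of compound treatment at 37 °C, 5% CO2.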
In general terms: With HiBiT, luminescence reflects the tagged protein that the partner subunit can reach.

Experiment [3] has as its target His tagged CRBN+DDB−DLS7+CXU4 (Homo sapiens (Human), UniProt Q96SW2). Put plainly: IC50 Measurements for Binding to CRBN/DDBI (HTRF). To be noted: Cy5-labeled Thalidomide probe, one hour incubation.
Experiment [4] has as its target T1, IKZF2. Put plainly: IKZF2 HiBit Assay (HEK293T Flp-in-HiBiT cells). The format is cell-based. The settings on record: HEK293T Flp-in-HiBiT cells, 6 hrs; for DC50: read-out: IKZF2 HiBit degradation DC50; for Dmax: HEK-293T, read-out: IKZF2 HiBit degradation Dmax. The method, boiled down:
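HEK293T Flp-in cells carrying CRISPR-inserted N-terminal HiBiT tag at the endogenous IKZF2 locus were treated with an 11-point, 3-fold dilution from 1 mM (stock) for 6 hrs; final DMSO 0.1%. HiBiT luminescence was detected after lysis with LgBiT/substrate reagent. DMSO-normalized curves gave 50% degradation concentration and Dmax.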

The target in the next experiment is IKZF1 (Homo sapiens (Human), UniProt Q13422+Q96SW2). Put plainly: IKZF1 HiBit Assay (HEK293T Flp-in-HiBiT-IKZF1 stable cell line). The format is cell-based. To be noted: HEK293T Flp-in-HiBiT-IKZF1 cells, 6 hrs; for DC50: read-out: IKZF1 HiBit degradation DC50; for Dmax: HEK-293T, read-out: IKZF1 HiBit degradation Dmax. The method, boiled down:
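HEK293T Flp-in cells with CRISPR-inserted N-terminal HiBiT tag treated 6 h with 11-point threefold dilutions (0.1% DMSO). Nano-Glo HiBiT lytic luminescence normalised to DMSO gave the 50%-degradation concentration; Dmax taken as the luminescence range from highest to lowest concentration.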

The structures appear in SMILES notation.

Sequence of GST-tagged wild-type human CRBN protein (Q96SW2 whole entry): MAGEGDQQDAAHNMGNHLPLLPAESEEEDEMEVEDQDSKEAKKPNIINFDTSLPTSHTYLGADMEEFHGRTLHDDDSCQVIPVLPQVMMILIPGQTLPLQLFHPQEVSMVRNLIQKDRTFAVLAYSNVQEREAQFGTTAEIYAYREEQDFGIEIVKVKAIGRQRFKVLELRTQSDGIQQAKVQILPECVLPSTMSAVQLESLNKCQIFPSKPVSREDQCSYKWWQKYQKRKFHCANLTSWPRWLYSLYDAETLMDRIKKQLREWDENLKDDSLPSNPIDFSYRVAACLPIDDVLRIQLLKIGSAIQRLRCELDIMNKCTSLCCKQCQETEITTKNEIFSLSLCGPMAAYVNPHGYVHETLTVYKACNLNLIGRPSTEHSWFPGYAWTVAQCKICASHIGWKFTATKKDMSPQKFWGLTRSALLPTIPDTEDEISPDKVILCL
Sequence of His tagged CRBN+DDB−DLS7+CXU4 (Q96SW2 whole entry): as above
Sequence of His tagged CRBN+DDB−DLS7+CXU4 (Q16531 whole entry partner): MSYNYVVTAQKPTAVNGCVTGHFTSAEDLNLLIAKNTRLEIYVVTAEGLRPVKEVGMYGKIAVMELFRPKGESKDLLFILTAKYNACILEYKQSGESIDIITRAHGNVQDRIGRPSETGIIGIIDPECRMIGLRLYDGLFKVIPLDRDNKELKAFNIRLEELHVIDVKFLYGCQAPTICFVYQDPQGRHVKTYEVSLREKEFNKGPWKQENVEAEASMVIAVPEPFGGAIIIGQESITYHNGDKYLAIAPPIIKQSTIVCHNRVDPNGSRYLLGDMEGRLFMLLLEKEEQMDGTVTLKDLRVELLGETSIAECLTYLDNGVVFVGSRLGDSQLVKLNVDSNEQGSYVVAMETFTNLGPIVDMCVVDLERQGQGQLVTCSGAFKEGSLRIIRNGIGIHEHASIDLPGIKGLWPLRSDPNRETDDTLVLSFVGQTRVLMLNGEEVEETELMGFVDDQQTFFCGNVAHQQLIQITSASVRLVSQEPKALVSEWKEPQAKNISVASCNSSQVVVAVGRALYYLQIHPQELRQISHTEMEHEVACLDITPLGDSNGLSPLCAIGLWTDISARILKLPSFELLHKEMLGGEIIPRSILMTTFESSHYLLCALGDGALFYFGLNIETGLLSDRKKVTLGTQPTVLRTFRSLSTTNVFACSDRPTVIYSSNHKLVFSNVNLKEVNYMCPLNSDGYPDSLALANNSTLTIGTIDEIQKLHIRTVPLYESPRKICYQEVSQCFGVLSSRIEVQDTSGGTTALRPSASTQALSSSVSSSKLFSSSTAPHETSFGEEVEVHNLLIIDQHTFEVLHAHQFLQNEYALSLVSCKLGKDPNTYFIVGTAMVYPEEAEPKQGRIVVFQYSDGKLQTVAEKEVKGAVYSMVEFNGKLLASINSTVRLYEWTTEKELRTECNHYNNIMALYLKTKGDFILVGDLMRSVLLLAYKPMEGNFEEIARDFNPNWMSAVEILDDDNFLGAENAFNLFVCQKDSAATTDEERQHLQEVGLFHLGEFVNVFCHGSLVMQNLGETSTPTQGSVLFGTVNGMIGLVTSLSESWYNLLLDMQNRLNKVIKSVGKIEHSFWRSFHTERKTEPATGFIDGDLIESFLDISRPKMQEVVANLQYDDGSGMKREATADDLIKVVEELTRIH
Sequence of IKZF1 (Q13422 whole entry): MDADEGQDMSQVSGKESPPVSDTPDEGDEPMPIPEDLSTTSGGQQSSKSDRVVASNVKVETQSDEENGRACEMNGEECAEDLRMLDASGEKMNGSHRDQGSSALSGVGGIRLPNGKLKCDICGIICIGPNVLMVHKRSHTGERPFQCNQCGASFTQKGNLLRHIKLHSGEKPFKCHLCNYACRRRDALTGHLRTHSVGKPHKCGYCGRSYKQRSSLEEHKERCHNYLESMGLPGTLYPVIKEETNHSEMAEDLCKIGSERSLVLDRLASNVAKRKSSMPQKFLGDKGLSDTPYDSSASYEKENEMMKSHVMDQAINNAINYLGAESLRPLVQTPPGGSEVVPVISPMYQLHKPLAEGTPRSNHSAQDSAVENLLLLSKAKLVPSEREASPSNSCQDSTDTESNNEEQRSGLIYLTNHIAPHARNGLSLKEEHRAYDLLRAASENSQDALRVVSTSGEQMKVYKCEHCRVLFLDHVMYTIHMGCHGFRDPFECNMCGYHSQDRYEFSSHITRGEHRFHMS
Sequence of IKZF1 (Q96SW2 whole entry): as the sequence (Q96SW2 whole entry) above
Sequence of IKZF1 (Q16531 whole entry partner): as the sequence (Q16531 whole entry partner) above
T1 sequence (Q9UKS7 whole entry): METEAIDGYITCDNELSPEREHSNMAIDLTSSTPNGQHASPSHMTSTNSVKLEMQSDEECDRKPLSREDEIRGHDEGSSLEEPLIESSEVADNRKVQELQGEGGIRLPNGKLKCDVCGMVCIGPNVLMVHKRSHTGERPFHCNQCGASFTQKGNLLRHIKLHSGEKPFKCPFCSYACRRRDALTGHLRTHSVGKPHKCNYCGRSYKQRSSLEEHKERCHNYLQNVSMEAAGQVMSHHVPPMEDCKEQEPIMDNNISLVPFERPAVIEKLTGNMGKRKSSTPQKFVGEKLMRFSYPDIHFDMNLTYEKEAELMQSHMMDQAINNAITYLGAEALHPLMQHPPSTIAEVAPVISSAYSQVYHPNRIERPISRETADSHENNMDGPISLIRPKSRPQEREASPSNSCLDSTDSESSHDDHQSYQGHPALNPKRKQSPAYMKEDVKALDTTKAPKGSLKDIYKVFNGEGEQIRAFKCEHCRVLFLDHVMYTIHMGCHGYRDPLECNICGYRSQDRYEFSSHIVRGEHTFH
T1 sequence (Q96SW2 whole entry): as the sequence (Q96SW2 whole entry) above
T1 sequence (Q16531 whole entry partner): as the sequence (Q16531 whole entry partner) above

In the case of `O=C1CCC(N2Cc3c(ccc4c3OCC43CCN(Cc4ccc5c(c4)NC(=O)C5)CC3)C2=O)C(=O)N1` (centres unmarked) [Compound A131, 3-(6-oxo-1′-((2-oxoindolin-6-yl)methyl)-6,8-dihydro-2H,7H-spiro[furo[2,3-e]isoindole-3,4′-piperidin]-7-yl)piperidine-2,6-dione], the 50% inhibitory concentration (IC50) (commonly the concentration at which inhibition is half-maximal) in experiment [1] lay in the range of 100 to 1000 nM. Also, on IKZF2 [2], the DC50 (commonly the midpoint of the concentration-degradation curve) is 50 to 200 nM and the Dmax (usually the largest share of the target that was removed) is 60 to 80%.

As for `O=C1CCC(N2Cc3c(ccc4c3OCC43CCN(Cc4cccc5[nH]ccc45)CC3)C2=O)C(=O)N1` (centres unmarked) [Compound A87, 3-(1′-((1H-indol-4-yl)methyl)-6-oxo-6,8-dihydro-2H,7H-spiro[furo[2,3-e]isoindole-3,4′-piperidin]-7-yl)piperidine-2,6-dione], the half-inhibitory concentration (IC50) in experiment [1] is 100 to 1000 nM. Besides, on IKZF2 [2], the DC50 is less than 50 nM and the Dmax was greater than 80%.

In experiment [1], `Cn1cc(-c2cccc(CN3CCC4(CC3)COc3c4ccc4c3CN([C@H]3CCC(=O)NC3=O)C4=O)c2)cn1` [Compound A170, (S)-3-(1′-(3-(1-methyl-1H-pyrazol-4-yl)benzyl)-6-oxo-6,8-dihydro-2H,7H-spiro[furo[2,3-e]isoindole-3,4′-piperidin]-7-yl)piperidine-2,6-dione] came in with an IC50 of 100 to 1000 nM. On IKZF2 [2], the 50% degradation concentration (DC50) was less than 50 nM and the Dmax was in the range of 60 to 80%.

Molecule `O=C1CCC(N2Cc3c(ccc4c3OCC43CCN(Cc4cccc(-c5cc[nH]n5)c4)CC3)C2=O)C(=O)N1` (centres unmarked) [Compound A160, 3-(1′-(3-(1H-pyrazol-3-yl)benzyl)-6-oxo-6,8-dihydro-2H,7H-spiro[furo[2,3-e]isoindole-3,4′-piperidin]-7-yl)piperidine-2,6-dione] returned an IC50 in experiment [1] of 10 to 100 nM. Further, at IKZF2 [2], the DC50 is less than 50 nM and the maximal degradation (Dmax) lay within 60 to 80%.

`O=C1CCC(N2Cc3c(ccc4c3OCC43CCN(Cc4cc(Cl)cc5[nH]ncc45)CC3)C2=O)C(=O)N1` (centres unmarked) [Compound A128, 3-(1′-((6-chloro-1H-indazol-4-yl)methyl)-6-oxo-6,8-dihydro-2H,7H-spiro[furo[2,3-e]isoindole-3,4′-piperidin]-7-yl)piperidine-2,6-dione] displayed an IC50 in experiment [1] of 100 to 1000 nM. Moreover, at IKZF2 [2], the half-maximal degradation concentration (DC50) is 50 to 200 nM and the Dmax was 40 to 60%.

`Cn1ccc2ccc(CN3CCC4(CC3)COc3c4ccc4c3CN(C3CCC(=O)NC3=O)C4=O)cc21` (centres unmarked) [Compound A130, 3-(1′-((1-methyl-1H-indol-6-yl)methyl)-6-oxo-6,8-dihydro-2H,7H-spiro[furo[2,3-e]isoindole-3,4′-piperidin]-7-yl)piperidine-2,6-dione]: in experiment [1], the half-inhibitory concentration (IC50) is 100 to 1000 nM. Moreover, at IKZF2 [2], the DC50 was less than 50 nM and the greatest degradation seen (Dmax) is 60 to 80%.

For `Cn1cc2ccc(CN3CCC4(COc5c4ccc4c5CN([C@H]5CCC(=O)NC5=O)C4=O)C(F)(F)C3)cc2n1` (stereo partly drawn) [Compound B35, (3S)-3-(3′,3′-difluoro-1′-((2-methyl-2H-indazol-6-yl)methyl)-6-oxo-6,8-dihydro-2H,7H-spiro[furo[2,3-e]isoindole-3,4′-piperidin]-7-yl)piperidine-2,6-dione], the half-inhibitory concentration (IC50) in experiment [3] was less than 100 nM. For the same molecule, on IKZF2 [4], the 50% degradation concentration (DC50) lay within 1 to 10 nM and the greatest degradation seen (Dmax) was in the range of 60 to 80%. In addition, on IKZF1, the DC50 is greater than 1000 nM and the greatest degradation seen (Dmax) was less than 20%.

`[2H]C([2H])(c1cccc(-c2cnn(C(F)F)c2)c1)N1CCC2(CC1)COc1c2ccc2c1CN([C@H]1CCC(=O)NC1=O)C2=O` [Compound B10, (S)-3-(1′-((3-(1-(difluoromethyl)-1H-pyrazol-4-yl)phenyl)methyl-d2)-6-oxo-6,8-dihydro-2H,7H-spiro[furo[2,3-e]isoindole-3,4′-piperidin]-7-yl) piperidine-2,6-dione] yielded an IC50 in experiment [3] of 100 to 500 nM. For the same molecule, the half-maximal degradation concentration (DC50) on IKZF2 [4] is 1 to 10 nM; at IKZF1, greater than 1000 nM. Also, the greatest degradation seen (Dmax) at IKZF2 [4] was 60 to 80%; at IKZF1 it was less than 20%.

In experiment [3], `O=C1CC[C@H](N2Cc3c(ccc4c3OCC43CCN(Cc4cc(-c5ccc(Cl)cc5)ns4)CC3)C2=O)C(=O)N1` [Compound B3, (S)-3-(1′-((3-(4-chlorophenyl)isothiazol-5-yl)methyl)-6-oxo-6,8-dihydro-2H,7H-spiro[furo[2,3-e]isoindole-3,4′-piperidin]-7-yl)piperidine-2,6-dione] yielded an IC50 of less than 100 nM. In addition, on IKZF2 [4], the DC50 was in the range of 10 to 100 nM and the Dmax is 60 to 80%. In addition, on IKZF1, the DC50 was greater than 1000 nM and the greatest degradation seen (Dmax) was less than 20%.

Molecule `O=C1CC[C@H](N2Cc3c(ccc4c3OCC43CCN(Cc4cccc5cn[nH]c45)CC3(F)F)C2=O)C(=O)N1` (some centres unmarked) [Compound B44] showed an IC50 in experiment [3] of less than 100 nM. On IKZF2 [4], the DC50 fell in the range of 1 to 10 nM and the greatest degradation seen (Dmax) is greater than 80%. In addition, at IKZF1, the DC50 fell in the range of 100 to 1000 nM and the maximal degradation (Dmax) is 20 to 40%.

In experiment [3], `CC1CN(Cc2cccc(-c3cnn(C)c3)c2)CCC12COc1c2ccc2c1CN(C1CCC(=O)NC1=O)C2=O` (centres unmarked) [Compound B21, 3-(3′-methyl-1′-(3-(1-methyl-1H-pyrazol-4-yl)benzyl)-6-oxo-6,8-dihydro-2H,7H-spiro[furo[2,3-e]isoindole-3,4′-piperidin]-7-yl)piperidine-2,6-dione] yielded an IC50 of 100 to 500 nM. Also, on IKZF2 [4], the 50% degradation concentration (DC50) was 1 to 10 nM and the greatest degradation seen (Dmax) lay in the range of 20 to 40%. Further, at IKZF1, the half-maximal degradation concentration (DC50) was greater than 1000 nM and the Dmax is less than 20%.

Molecule `O=C1CC[C@H](N2Cc3c(ccc4c3OCC43CCN(Cc4ccc5c(c4)C(=O)NC5)CC3(F)F)C2=O)C(=O)N1` (stereo partly drawn) [Compound B31, (3S)-3-(3′,3′-difluoro-6-oxo-1′-((3-oxoisoindolin-5-yl)methyl)-6,8-dihydro-2H,7H-spiro[furo[2,3-e]isoindole-3,4′-piperidin]-7-yl)piperidine-2,6-dione] showed an IC50 in experiment [3] of 100 to 500 nM. Besides, at IKZF2 [4], the DC50 fell in the range of 1 to 10 nM and the maximal degradation (Dmax) was 60 to 80%. On IKZF1, the DC50 is greater than 1000 nM and the Dmax is less than 20%.

Turning to `O=C1CC[C@H](N2Cc3c(ccc4c3OCC43CCN(Cc4cnn(-c5ccc(Cl)cc5)c4C(F)(F)F)CC3)C2=O)C(=O)N1` [Compound B1, (S)-3-(1′-((1-(4-chlorophenyl)-5-(trifluoromethyl)-1H-pyrazol-4-yl)methyl)-6-oxo-6,8-dihydro-2H,7H-spiro[furo[2,3-e]isoindole-3,4′-piperidin]-7-yl) piperidine-2,6-dione], the IC50 in experiment [3] lay in the range of 500 to 1000 nM. Besides, on IKZF2 [4], the DC50 was 1 to 10 nM and the Dmax lay within 40 to 60%. In addition, at IKZF1, the half-maximal degradation concentration (DC50) was 100 to 1000 nM and the Dmax lay in the range of 20 to 40%.

In experiment [3], `O=C1CC[C@H](N2Cc3c4c(cc(Cl)c3C2=O)C2(CCN(Cc3cccc5cn[nH]c35)CC2)CO4)C(=O)N1` [Compound B18, (S)-3-(1′-((1H-indazol-7-yl)methyl)-5-chloro-6-oxo-6,8-dihydro-2H,7H-spiro[furo[2,3-e]isoindole-3,4′-piperidin]-7-yl)piperidine-2,6-dione] returned an IC50 of 100 to 500 nM. For the same molecule, the 50% degradation concentration (DC50) on IKZF2 [4] and at IKZF1 was greater than 1000 nM throughout. For the same molecule, the Dmax on IKZF2 [4] and on IKZF1 was less than 20% in each case.

For `O=C1CCC(N2Cc3c(ccc4c3OCC43CCN(Cc4ccccc4)CC3O)C2=O)C(=O)N1` (centres unmarked) [Compound B22, 3-(1′-benzyl-3′-hydroxy-6-oxo-6,8-dihydro-2H,7H-spiro[furo[2,3-e]isoindole-3,4′-piperidin]-7-yl)piperidine-2,6-dione], in experiment [3], the half-inhibitory concentration (IC50) was in the range of 100 to 500 nM. Further, on IKZF2 [4], the DC50 fell in the range of 10 to 100 nM and the greatest degradation seen (Dmax) was 20 to 40%. Also, at IKZF1, the 50% degradation concentration (DC50) is greater than 1000 nM and the maximal degradation (Dmax) was less than 20%.

With `[2H]C([2H])(c1cccc(-c2cnn(C)c2)c1)N1CCC2(CC1)COc1c2ccc2c1CN([C@H]1CCC(=O)NC1=O)C2=O` [Compound B11, (S)-3-(1′-((3-(1-methyl-1H-pyrazol-4-yl)phenyl)methyl-d2)-6-oxo-6,8-dihydro-2H,7H-spiro[furo[2,3-e]isoindole-3,4′-piperidin]-7-yl)piperidine-2,6-dione], in experiment [3], the IC50 was less than 100 nM. On IKZF2 [4], the 50% degradation concentration (DC50) fell in the range of 1 to 10 nM and the maximal degradation (Dmax) was greater than 80%. Also, on IKZF1, the half-maximal degradation concentration (DC50) is greater than 1000 nM and the Dmax is less than 20%.
